From US4091006A, “Esters of 3-hydroxyindone compounds” (priority 1975, dated 1978)
In brackets after ≈: the same amount, converted by molar mass.

What was measured:
Tomato = assay: Phytotoxicity, tomato; settings: 2500 ppm, 10 days
Procedure: (§5) Experiments were also conducted to determine the phytotoxicity of representative enol ester compositions with respect to healthy fresh plants. […] The test plants were sprayed in accordance with the procedure described above for the Mite Foliage Spray Test so as to deliver approximately 100 milliliters of test solution to the leaves of each plant tested. The sprayed plants and controls were set aside for approximately 1 hour to allow the solutions to dry and were then placed in the greenhouse. After 10 days the plants were visually inspected to determine the extent of foliage injury. A rating of 1 indicates no perceptible injury; 5 indicates the plant was dead and ratings of 2, 3 and 4 indicate intermediate degrees of injury based upon the number and extent to which leaves were injured.

[1] = tested on: adults and nymphal stages of the two-spotted mite; assay: Mite Foliage Spray Test; assay type: in vivo, Tetranychus urticae (Koch); settings: 4 days
From the text: (§1) The test procedures were as follows:
(§2) Compositions were rated on the basis of percent kill with a rating of 1 indicating no mortality; 3 signifying an approximately 50% mortality and 5 indicating 100% mortality at the indicated dosage.

two-spotted mite = assay: Small scale field tests, mite control on Tendergreen bean plants; assay type: in vivo, Tetranychus urticae (Koch); settings: for Average mite control rating, 3rd Reading: 21 days
Procedure: Selected enol ester compositions were evaluated in small scale field tests to determine whether the excellent miticidal properties observed in greenhouse testing would be obtained under actual conditions of field use.
In Test I 500 ppm aqueous dispersions were prepared as described above. In tests II and III various dilutions of the test compounds ranging from 125 ppm to 1000 ppm were prepared and used. In each case the test dispersions were applied to a minimum of two replicate test plots measuring five feet in length and containing healthy young Tendergreen bean plants which had previously been infested with two-spotted mite (Tetranychus urticae (Koch)). Dispersions of the test compounds at each concentration level were applied to individual replicate plots using 1/2 gallon garden sprayers equipped with spray nozzles to apply approximately 250 ml. of test solution to each replicate. The effectiveness of the treatment was determined at intervals following application, by microscopic examination of five leaves selected at random from each replicate plot. The degree of effectiveness for each leaf was rated on a scale of from 1 to 5 with 1 indicating no control in reference to a standard sprayed with a mixture of solution less test compound and 5 indicating complete control. The results obtained from inspection of sample leaves were then averaged to give a numerical indication of the degree of control for each compound tested at the concentration applied.

Corn = assay: Phytotoxicity, corn; settings: 2500 ppm, 10 days
Procedure: as §5

Mite Ova = assay: whole plant or invertebrate
Procedure: The test organism was the egg of the two-spotted mite (Tetranychus urticae (Koch)), as obtained from adults reared on Tendergreen bean plants under controlled conditions of 80±5° F. and 50±5 percent relative humidity. Heavily infested leaves from a stock culture were placed on the primary leaves of two bean plants 6 to 8 inches in height, growing in a 21/2 inch clay pot. Females were allowed to oviposit for a period of 48 hours and then the leaves of the infested plants were dipped in a solution containing 800 parts of tetraethyl pyrophosphate per million parts of water in order to destroy the reproductory forms and thus prevent further egg laying. […] The plants were allowed to dry thoroughly. […] The potted plants (one pot per compound) were placed on a revolving turntable and sprayed with 100-110 milliliters of test compound formulation by use of a DeVilbis spray gun set at 40 psig. air pressure. This application, which lasted 30 seconds, was sufficient to wet the plants to run-off. As a control, 100-110 milliliters of a water solution containing acetone and emulsifier in the same concentrations as the test compound formulation, but containing no test compound, were also sprayed on plants infested with eggs. The sprayed plants were held at 80±5° F. and 50±5 percent relative humidity for 4 days, after which a microscopic examination was made of unhatched (dead) and hatched (living) eggs.
(§3) Side by side comparison tests were conducted to determine the effectiveness of selected enol ester compounds relative to (bis(p-chlorophenyl)trichlorethanol) a miticide sold under the trademark Kelthane and ovex (p-chlorophenyl-p-chlorobenzene sulfonate) two widely used commercial miticides.

[2] = tested on: egg forms of the two-spotted mite; assay: Fumigant toxicity, Method 2 (treated plants near untreated infested plants); assay type: in vivo; settings: 500 ppm dip, 4 days
Procedure: (§4) Two methods were used to evaluate fumigant properties:
Method 2: Excised bean plants infested with egg forms of the two-spotted mite were dipped in an aqueous preparation (500 ppm) of the test compound. The treated plants were transferred to 250 ml. Erlenmeyer flasks containing 100 ml. of tap water. Four flasks holding treated plants were evenly spaced around a similar flask in which were placed untreated mite-infested plants so that the leaves of the treated foliage were in close proximity (1-3 inches) to the untreated plants. Four days later mortality determinations were made.

Bean = assay: Phytotoxicity, bean; settings: 2500 ppm, 10 days
Procedure: as §5

[3] = tested on: Perennial rye grass, crabgrass, red root pigweed, mustard; assay: Preliminary Herbicide Seed Germination Test; settings: rating/maximum 40: 100 and 1000 ppm, four species, each rated 1 (no injury) to 5 (no seedlings emerged), 10-12 days
Cotton = assay: Phytotoxicity, cotton; settings: 2500 ppm, 10 days
Procedure: as §5

Mite Adults = assay: whole plant or invertebrate
Procedure: Adults and nymphal stages of the two-spotted mite (tetranychus urticae (Koch)), reared on Tendergreen bean plants at 80±5° F. and 50±5 percent relative humidity, were the test organisms. Infested leaves from a stock culture were placed on the primary leaves of two bean plants 6 to 8 inches in height, growing in a 21/2 inch clay pot. 150-200 Mites, a sufficient number for testing, transferred from the excised leaves to the fresh plants in a period of 24 hours. Following the 24 hour transfer period, the excised leaves were removed from the infested plants. The test compounds were formulated by diluting the stock suspension with water to provide suspensions containing the desired amount of test compound per million parts of final formulation. The potted plants (one pot per compound) were placed on a revolving turntable and sprayed with 100-110 milliliters of test compound formulation by use of a DeVilbis spray gun set at 40 psi. air pressure. This application, which lasted 30 seconds, was sufficient to wet the plants to run-off. As a control, 100-110 milliliters of a water solution containing acetone and emulsifier in the same concentrations as the test compound formulation, but containing no test compound, were also sprayed on infested plants. The sprayed plants were held at 80±5° F. and 50±5 percent relative humidity for 4 days, after which, a mortality count of motile forms was made. Microscopic examination for motile forms was made on the leaves of the test plants. Any individual which was capable of locomotion upon prodding was considered living.
as §3

[4] = tested on: eggs of the two-spotted mite; assay: Fumigant toxicity, Method 1 (deposit in pie plate); assay type: in vivo; settings: deposit approx. 160 μg per square cm, 4 days
Procedure: as §4
Method 1: Fifty mg. of each compound were dissolved in 5 ml. of acetone and poured into a 20 cm. (bottom diameter) Pyrex No. 210 pie plate. The acetone was allowed to evaporate leaving a deposit of approximately 160 μg. per square cm. The plate was then placed in the bottom of a 50 pound metal lard container (about 30 cm. in diameter and 34 cm. high). Two excised bean plants, held in a 250 ml. Erlenmeyer flask containing 100 ml. of tap water and infested with eggs of the two-spotted mite, were placed in the center of the pie plate. The container was held in the insectary (temperature 80±5° F., 50±5% R. H.) for four days before mortality determinations were made.

[5] = tested on: egg of the two-spotted mite; assay: Mite Ovicide Test; assay type: in vivo, Tetranychus urticae (Koch); settings: spray on eggs, 4 days
From the text: as §1
The plants were allowed to dry thoroughly.
as §2

[6] = concentration to kill 95 percent

In the case of `Cc1cc(C)c(C2=C(OC(=O)C(C)(C)C)c3ccccc3C2=O)c(C)c1` [2-(2',4',6'-Trimethylphenyl)-3-(pivaloyloxy)indone], the “Phytotoxicity Rating, Tomato” value (Tomato) is reported as 3, the “Mite Adult rating” value [1] is reported as 5 (100% mortality) and the “Average mite control rating, 1st Reading” value (two-spotted mite; Test I, 500 ppm, 4 days, scale 1 (no control) to 5 (complete control)) is reported as 4.0. For the same compound, the “Average mite control rating, 2nd Reading” value (two-spotted mite; Test I, 500 ppm, 8 days, scale 1 to 5) was 3.5, the “Average mite control rating, 1st Reading” value (two-spotted mite; Test II, 250 ppm, 3 days, scale 1 to 5) was 3.0 and the “Average mite control rating, 2nd Reading” value (two-spotted mite; Test II, 250 ppm, 7 days, scale 1 to 5) was 4.0. The “Average mite control rating, 1st Reading” value (two-spotted mite; Test II, 500 ppm, 3 days, scale 1 to 5) was 2.3, the “Average mite control rating, 2nd Reading” value (two-spotted mite; Test II, 500 ppm, 7 days, scale 1 to 5) was 4.7 and the “Average mite control rating, 1st Reading” value (two-spotted mite; Test III, 125 ppm, 3 days, scale 1 to 5) was 1.7. The “Average mite control rating, 2nd Reading” value (two-spotted mite; Test III, 125 ppm, 7 days, scale 1 to 5) was 2.3, the “Average mite control rating, 3rd Reading” value (two-spotted mite; Test III, 125 ppm, scale 1 to 5) was 1.7 and the “Average mite control rating, 1st Reading” value (two-spotted mite; Test III, 250 ppm, 3 days, scale 1 to 5) was 3.0. For the same compound, the “Average mite control rating, 2nd Reading” value (two-spotted mite; Test III, 250 ppm, 7 days, scale 1 to 5) was 4.0, the “Average mite control rating, 3rd Reading” value (two-spotted mite; Test III, 250 ppm, scale 1 to 5) was 3.7 and the “Average mite control rating, 1st Reading” value (two-spotted mite; Test III, 500 ppm, 3 days, scale 1 to 5) was 3.0. The “Average mite control rating, 2nd Reading” value (two-spotted mite; Test III, 500 ppm, 7 days, scale 1 to 5) was 4.0, the “Average mite control rating, 3rd Reading” value (two-spotted mite; Test III, 500 ppm, scale 1 to 5) was 4.5 and the “Phytotoxicity Rating, Corn” value (Corn) was 3. The LC50 (Mite Ova; Tetranychus urticae, read-out: Mite Ova LD50) was 3 µg/mL (≈ 8.61 µM), the “Mite Ova LD95” value (Mite Ova; [6]) was 9 ppm and the “Fumigant Toxicity Method 2” value [2] was 5 (80-100% control). For the same compound, the “Phytotoxicity Rating, Bean” value (Bean) was 1, the “Herbicide (total preemergence rating)” value [3] was 32/40 and the “Phytotoxicity Rating, Cotton” value (Cotton) was 3. The LC50 (Mite Adults; Tetranychus urticae, read-out: Mite Adults LD50) was 5 µg/mL (≈ 14.3 µM), the “Mite Adults LD95” value (Mite Adults; [6]) was 170 ppm and the “Fumigant Toxicity Method 1” value [4] was 5 (80-100% control). For the same compound, the “Mite Ova rating” value [5] was 5 (100% mortality).
